We go through 22 compounds from patent US20250144094A1 (Erasca, Inc., priority 2021, published 2025).

This test concerns the target Recombinant human ULK1 (1-649) (Homo sapiens (Human), UniProt O75385). The test is described as follows: ULK1 ADP Glo kinase activity assay, new method (ULKtide peptide substrate). The conditions noted are these: 25° C., 40 minutes, read-out: ULK1 biochemical IC50. In outline: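 GST-tagged human ULK1 (1-649) from Sf9 cells was reacted with ULKtide peptide and ATP for 40 min at 25 °C across 12-point compound dilutions from 10 μM. ADP formed was quantified by ADP-Glo luminescence; IC50 came from four-parameter fits relative to DMSO controls.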
For orientation: In ADP-Glo the light output rises with the ADP produced.

Recombinant human ULK1 (1-649), sequence (O75385 1-649): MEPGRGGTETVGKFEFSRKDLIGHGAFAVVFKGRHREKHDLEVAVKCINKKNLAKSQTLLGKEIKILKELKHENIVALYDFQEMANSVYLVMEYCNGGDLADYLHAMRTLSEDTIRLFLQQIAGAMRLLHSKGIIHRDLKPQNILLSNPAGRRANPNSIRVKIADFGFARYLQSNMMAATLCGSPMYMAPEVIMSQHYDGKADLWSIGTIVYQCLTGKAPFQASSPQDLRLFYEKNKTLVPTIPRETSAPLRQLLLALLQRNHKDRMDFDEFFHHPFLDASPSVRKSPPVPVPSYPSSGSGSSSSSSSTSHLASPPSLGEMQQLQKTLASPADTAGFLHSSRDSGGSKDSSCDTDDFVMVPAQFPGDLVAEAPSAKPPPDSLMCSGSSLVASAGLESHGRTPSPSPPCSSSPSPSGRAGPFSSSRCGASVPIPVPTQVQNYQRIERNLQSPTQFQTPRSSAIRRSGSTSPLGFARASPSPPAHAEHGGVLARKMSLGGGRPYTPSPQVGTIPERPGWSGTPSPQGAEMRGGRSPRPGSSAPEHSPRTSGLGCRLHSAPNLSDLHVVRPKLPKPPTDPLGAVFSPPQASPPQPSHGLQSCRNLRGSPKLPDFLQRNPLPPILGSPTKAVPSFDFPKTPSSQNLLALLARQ

The IC50 is the concentration needed to halve the response being measured. `O=C1c2sc(-c3nc(Nc4cc5c(cc4C4CC4)CCNC5)ncc3C(F)(F)F)cc2S(=O)(=O)CCN1C1CC1` [Example 224, 4-cyclopropyl-7-(2-((6-cyclopropyl-1,2,3,4-tetrahydroisoquinolin-7-yl)amino)-5-(trifluoromethyl)pyrimidin-4-yl)-3,4-dihydrothieno[2,3-f][1,4]thiazepin-5(2H)-one 1,1-dioxide]: the IC50 was at most 5 nM.
To `O=C1c2sc(-c3nc(Nc4cc5c(cc4Cl)CNCC5)ncc3C(F)(F)F)cc2S(=O)(=O)CCN1C1CCC1` [Example 158, 7-(2-((7-chloro-1,2,3,4-tetrahydroisoquinolin-6-yl)amino)-5-(trifluoromethyl)pyrimidin-4-yl)-4-cyclobutyl-3,4-dihydrothieno[2,3-f][1,4]thiazepin-5(2H)-one 1,1-dioxide] belongs at most 5 nM.
To `CN1CCC(n2cc(Nc3ncc(C(F)(F)F)c(-c4cc5c(s4)C(=O)NCCS5(=O)=O)n3)c(C3CC3)n2)CC1` [Example 152, 7-(2-((3-cyclopropyl-1-(1-methylpiperidin-4-yl)-1H-pyrazol-4-yl)amino)-5-(trifluoromethyl)pyrimidin-4-yl)-3,4-dihydrothieno[2,3-f][1,4]thiazepin-5(2H)-one 1,1-dioxide] belongs at most 5 nM; to `O=S1(=O)CCNS(=O)(=O)c2sc(-c3nc(Nc4cc5c(cc4Cl)CNCC5)ncc3C(F)(F)F)cc21` [Example 295, 7-(2-((7-chloro-1,2,3,4-tetrahydroisoquinolin-6-yl)amino)-5-(trifluoromethyl)pyrimidin-4-yl)-3,4-dihydro-2H-thieno[3,2-f][1,5,2]dithiazepine 1,1,5,5-tetraoxide], at most 5 nM.
Then `CN1Cc2cc(Cl)c(Nc3ncc(C(F)(F)F)c(-c4cc5c(s4)C(=O)N(C)CCS5(=O)=O)n3)cc2C1` [Example 181, 7-(2-((6-chloro-2-methylisoindolin-5-yl)amino)-5-(trifluoromethyl)pyrimidin-4-yl)-4-methyl-3,4-dihydrothieno[2,3-f][1,4]thiazepin-5(2H)-one 1,1-dioxide], with at most 5 nM.
In the case of `CCc1cc(N2C[C@H](C)N[C@@H](C)C2)ccc1Nc1ncc(C(F)(F)F)c(-c2cc3c(s2)C(=O)N(C2CC2)CCS3(=O)=O)n1` [Example 356, 4-cyclopropyl-7-(2-((4-((3S,5S)-3,5-dimethylpiperazin-1-yl)-2-ethylphenyl)amino)-5-(trifluoromethyl)pyrimidin-4-yl)-3,4-dihydrothieno[2,3-f][1,4]thiazepin-5(2H)-one 1,1-dioxide], the IC50 was at most 5 nM.
To `C[C@H]1CN(c2ccc(Nc3ncc(C(F)(F)F)c(-c4cc5c(s4)C(=O)N(C4CC4)CCS5(=O)=O)n3)c(C3CC3)c2)C[C@H](C)N1C` [Example 328, 4-cyclopropyl-7-(2-((2-cyclopropyl-4-((3S,5S)-3,4,5-trimethylpiperazin-1-yl)phenyl)amino)-5-(trifluoromethyl)pyrimidin-4-yl)-3,4-dihydrothieno[2,3-f][1,4]thiazepin-5(2H)-one 1,1-dioxide] belongs 5 to 10 nM; to `C[C@H]1CN(c2ccc(Nc3ncc(C(F)(F)F)c(-c4cc5c(s4)C(=O)N(C)CCS5(=O)=O)n3)c(C3CC3)c2)CCN1` [Example 380, (S)-7-(2-((2-cyclopropyl-4-(3-methylpiperazin-1-yl)phenyl)amino)-5-(trifluoromethyl)pyrimidin-4-yl)-4-methyl-3,4-dihydrothieno[2,3-f][1,4]thiazepin-5(2H)-one 1,1-dioxide], at most 5 nM.
For `CCc1cc(C2CCN(CC(F)F)CC2)ccc1Nc1ncc(C(F)(F)F)c(-c2cc3c(s2)C(=O)N(C2COC2)CCS3(=O)=O)n1` [Example 296, 7-(2-((4-(1-(2,2-difluoroethyl)piperidin-4-yl)-2-ethylphenyl)amino)-5-(trifluoromethyl)pyrimidin-4-yl)-4-(oxetan-3-yl)-3,4-dihydrothieno[2,3-f][1,4]thiazepin-5(2H)-one 1,1-dioxide], the half-inhibitory concentration (IC50) fell in the range of 5 to 10 nM.
Then `CN1CCS(=O)(=O)c2cc(-c3nc(Nc4cc5c(cc4Cl)CN(CC4CC4)CC5)ncc3C(F)(F)F)sc2C1=O` [Example 246, 7-(2-((7-chloro-2-(cyclopropylmethyl)-1,2,3,4-tetrahydroisoquinolin-6-yl)amino)-5-(trifluoromethyl)pyrimidin-4-yl)-4-methyl-3,4-dihydrothieno[2,3-f][1,4]thiazepin-5(2H)-one 1,1-dioxide], with at most 5 nM; and `CN1CCS(=O)(=O)c2cc(-c3nc(Nc4ccc(N5CCN(CC6COC6)CC5)cc4Cl)ncc3C(F)(F)F)sc2C1=O` [Example 217, 7-(2-((2-chloro-4-(4-(oxetan-3-ylmethyl)piperazin-1-yl)phenyl)amino)-5-(trifluoromethyl)pyrimidin-4-yl)-4-methyl-3,4-dihydrothieno[2,3-f][1,4]thiazepin-5(2H)-one 1,1-dioxide], with at most 5 nM; and `O=C1c2sc(-c3nc(Nc4ccc(N5CC6CC(C5)N6)cc4C4CC4)ncc3C(F)(F)F)cc2S(=O)(=O)CCN1C1CC1` [Example 338, 7-(2-((4-(3,6-diazabicyclo[3.1.1]heptan-3-yl)-2-cyclopropylphenyl)amino)-5-(trifluoromethyl)pyrimidin-4-yl)-4-cyclopropyl-3,4-dihydrothieno[2,3-f][1,4]thiazepin-5(2H)-one 1,1-dioxide], with at most 5 nM.
Then `O=C1c2sc(-c3nc(Nc4cc5c(cc4Cl)CN(CCF)CC5)ncc3C(F)(F)F)cc2S(=O)(=O)CCN1C1CC1` [Example 227, 7-(2-((7-chloro-2-(2-fluoroethyl)-1,2,3,4-tetrahydroisoquinolin-6-yl)amino)-5-(trifluoromethyl)pyrimidin-4-yl)-4-cyclopropyl-3,4-dihydrothieno[2,3-f][1,4]thiazepin-5(2H)-one 1,1-dioxide], with at most 5 nM; and `CN1CCS(=O)(=O)c2cc(-c3nc(Nc4cc5c(cc4Cl)CNCC5)ncc3C(F)(F)F)sc2S1(=O)=O` [Example 302, 7-(2-((7-chloro-1,2,3,4-tetrahydroisoquinolin-6-yl)amino)-5-(trifluoromethyl)pyrimidin-4-yl)-2-methyl-3,4-dihydro-2H-thieno[3,2-f][1,5,2]dithiazepine 1,1,5,5-tetraoxide], with at most 5 nM; and `CC(C)(O)CN1CCc2cc(Nc3ncc(C(F)(F)F)c(-c4cc5c(s4)C(=O)N(C4CC4)CCS5(=O)=O)n3)c(C3CC3)cc2C1` [Example 287, 4-cyclopropyl-7-(2-((7-cyclopropyl-2-(2-hydroxy-2-methylpropyl)-1,2,3,4-tetrahydroisoquinolin-6-yl)amino)-5-(trifluoromethyl)pyrimidin-4-yl)-3,4-dihydrothieno[2,3-f][1,4]thiazepin-5(2H)-one 1,1-dioxide], with at most 5 nM.
To `O=C1c2sc(-c3nc(Nc4cc5c(cc4C4CC4)CNCC5)ncc3C3CC3)cc2S(=O)(=O)CCN1C1CC1` [Example 261, 4-cyclopropyl-7-(5-cyclopropyl-2-((7-cyclopropyl-1,2,3,4-tetrahydroisoquinolin-6-yl)amino)pyrimidin-4-yl)-3,4-dihydrothieno[2,3-f][1,4]thiazepin-5(2H)-one 1,1-dioxide] belongs at most 5 nM.
`O=C1c2sc(-c3nc(Nc4ccc(N5C[C@@H]6C[C@H]5CN6)cc4C4CC4)ncc3C(F)(F)F)cc2S(=O)(=O)CCN1C1CC1` [Example 305, 7-(2-((4-((1S,4S)-2,5-diazabicyclo[2.2.1]heptan-2-yl)-2-cyclopropylphenyl)amino)-5-(trifluoromethyl)pyrimidin-4-yl)-4-cyclopropyl-3,4-dihydrothieno[2,3-f][1,4]thiazepin-5(2H)-one 1,1-dioxide]: the IC50 is at most 5 nM.
Then `CC1(CN2CCc3cc(Nc4ncc(C(F)(F)F)c(-c5cc6c(s5)C(=O)N(C5COC5)CCS6(=O)=O)n4)c(C4CC4)cc3C2)COC1` [Example 286, 7-(2-((7-cyclopropyl-2-((3-methyloxetan-3-yl)methyl)-1,2,3,4-tetrahydroisoquinolin-6-yl)amino)-5-(trifluoromethyl)pyrimidin-4-yl)-4-(oxetan-3-yl)-3,4-dihydrothieno[2,3-f][1,4]thiazepin-5(2H)-one 1,1-dioxide], with at most 5 nM.
Then `CCc1cc(N2CCN(C3CC3)CC2)ccc1Nc1ncc(C(F)(F)F)c(-c2cc3c(s2)C(=O)N(C2CC2)CCS3(=O)=O)n1` [Example 294, 4-Cyclopropyl-7-(2-((4-(4-cyclopropylpiperazin-1-yl)-2-ethylphenyl)amino)-5-(trifluoromethyl)pyrimidin-4-yl)-3,4-dihydrothieno[2,3-f][1,4]thiazepin-5(2H)-one 1,1-dioxide], with at most 5 nM; and `CCc1cc(C2CCN(CC(F)(F)F)CC2)ccc1Nc1ncc(C(F)(F)F)c(-c2cc3c(s2)C(=O)N(C2CC2)CCS3(=O)=O)n1` [Example 288, 4-cyclopropyl-7-(2-((2-ethyl-4-(1-(2,2,2-trifluoroethyl)piperidin-4-yl)phenyl)amino)-5-(trifluoromethyl)pyrimidin-4-yl)-3,4-dihydrothieno[2,3-f][1,4]thiazepin-5(2H)-one 1,1-dioxide], with over 100 nM.
To `CC(C)(F)CN1CCc2cc(Nc3ncc(C(F)(F)F)c(-c4cc5c(s4)C(=O)N(C4CC4)CCS5(=O)=O)n3)c(C3CC3)cc2C1` [Example 299, 4-cyclopropyl-7-(2-((7-cyclopropyl-2-(2-fluoro-2-methylpropyl)-1,2,3,4-tetrahydroisoquinolin-6-yl)amino)-5-(trifluoromethyl)pyrimidin-4-yl)-3,4-dihydrothieno[2,3-f][1,4]thiazepin-5(2H)-one 1,1-dioxide] belongs 10 to 50 nM; to `O=C1c2sc(-c3nc(Nc4ccc(N5CC6CC(C5)N6)cc4C4CC4)ncc3C(F)(F)F)cc2S(=O)(=O)CCN1C1COC1` [Example 340, 7-(2-((4-(3,6-diazabicyclo[3.1.1]heptan-3-yl)-2-cyclopropylphenyl)amino)-5-(trifluoromethyl)pyrimidin-4-yl)-4-(oxetan-3-yl)-3,4-dihydrothieno[2,3-f][1,4]thiazepin-5(2H)-one 1,1-dioxide], at most 5 nM.
